Assay results published in the NIST ThermoML archive (doi:10.1016/j.jct.2007.08.004).
Where “and” joins values, the source holds several entries; their conditions need not be identical. Equal values may be shown once. ± gives the expanded uncertainty stated by the source.

Assays:
[1] = for vapor or sublimation pressure: Calculated from knudsen effusion weight loss; for Triple point temperature: DTA
[2] = molar heat capacity at constant pressure; details: 101.33 kPa, Small sample (50 mg) DSC
[3] = Molar enthalpy of transition or fusion; details: DSC

## O=C1NCCCN1 [tetrahydropyrimidin-2(1H)-one]
[1]; 363.19 K, Crystal
  vapor or sublimation pressure: 0.0001292 ± 2.1e-05 kPa and 0.0001261 ± 2.1e-05 kPa and 0.0001216 ± 2.1e-05 kPa
[1]; 365.18 K, Crystal
  vapor or sublimation pressure: 0.0001581 ± 2.1e-05 kPa and 0.0001562 ± 2.1e-05 kPa and 0.0001488 ± 2.1e-05 kPa
[1]; 367.14 K, Crystal
  vapor or sublimation pressure: 0.0001903 ± 2.1e-05 kPa and 0.0001913 ± 2.1e-05 kPa and 0.0001858 ± 2.1e-05 kPa
[1]; 369.19 K, Crystal
  vapor or sublimation pressure: 0.0002232 ± 2.2e-05 kPa and 0.0002283 ± 2.2e-05 kPa
[1]; 371.17 K, Crystal
  vapor or sublimation pressure: 0.000271 ± 2.2e-05 kPa and 0.0002737 ± 2.2e-05 kPa and 0.0002643 ± 2.2e-05 kPa
[1]; 373.15 K, Crystal
  vapor or sublimation pressure: 0.0003343 ± 2.3e-05 kPa and 0.0003328 ± 2.3e-05 kPa
[1]; 375.18 K, Crystal
  vapor or sublimation pressure: 0.0003988 ± 2.4e-05 kPa and 0.000402 ± 2.5e-05 kPa
[1]; 377.18 K, Crystal
  vapor or sublimation pressure: 0.0004813 ± 2.6e-05 kPa and 0.0004804 ± 2.6e-05 kPa and 0.0004655 ± 2.6e-05 kPa
[1]; 379.16 K, Crystal
  vapor or sublimation pressure: 0.0005717 ± 2.9e-05 kPa and 0.0005887 ± 2.9e-05 kPa and 0.0005753 ± 2.9e-05 kPa
[1]; 381.18 K, Crystal
  vapor or sublimation pressure: 0.000719 ± 3.2e-05 kPa and 0.000702 ± 3.2e-05 kPa and 0.000673 ± 3.1e-05 kPa
[1]; 383.18 K, Crystal
  vapor or sublimation pressure: 0.0008587 ± 3.6e-05 kPa and 0.0008463 ± 3.6e-05 kPa
[1]; 385.16 K, Crystal
  vapor or sublimation pressure: 0.001027 ± 8e-05 kPa and 0.0009846 ± 4e-05 kPa
[2]; 268.15 K, Crystal
  molar heat capacity at constant pressure: 117.2 ± 2.3 J/K/mol
[2]; 270.15 K, Crystal
  molar heat capacity at constant pressure: 118 ± 2.4 J/K/mol
[2]; 275.15 K, Crystal
  molar heat capacity at constant pressure: 120.1 ± 2.4 J/K/mol
[2]; 280.15 K, Crystal
  molar heat capacity at constant pressure: 122.2 ± 2.4 J/K/mol
[2]; 285.15 K, Crystal
  molar heat capacity at constant pressure: 124.1 ± 2.5 J/K/mol
[2]; 290.15 K, Crystal
  molar heat capacity at constant pressure: 126.2 ± 2.5 J/K/mol
[2]; 295.15 K, Crystal
  molar heat capacity at constant pressure: 128.1 ± 2.6 J/K/mol
[2]; 298.15 K, Crystal
  molar heat capacity at constant pressure: 129.5 ± 2.6 J/K/mol
[2]; 300.15 K, Crystal
  molar heat capacity at constant pressure: 130.4 ± 2.6 J/K/mol
[2]; 305.15 K, Crystal
  molar heat capacity at constant pressure: 132.7 ± 2.7 J/K/mol
[2]; 310.15 K, Crystal
  molar heat capacity at constant pressure: 135.3 ± 2.7 J/K/mol
[2]; 315.15 K, Crystal
  molar heat capacity at constant pressure: 137.8 ± 2.8 J/K/mol
[2]; 320.15 K, Crystal
  molar heat capacity at constant pressure: 140.2 ± 2.8 J/K/mol
[2]; 325.15 K, Crystal
  molar heat capacity at constant pressure: 142.6 ± 2.9 J/K/mol
[2]; 330.15 K, Crystal
  molar heat capacity at constant pressure: 145.1 ± 2.9 J/K/mol
[2]; 335.15 K, Crystal
  molar heat capacity at constant pressure: 147.3 ± 2.9 J/K/mol
[2]; 340.15 K, Crystal
  molar heat capacity at constant pressure: 150.1 ± 3 J/K/mol
[2]; 345.15 K, Crystal
  molar heat capacity at constant pressure: 152.2 ± 3 J/K/mol
[2]; 350.15 K, Crystal
  molar heat capacity at constant pressure: 155.1 ± 3.1 J/K/mol
[2]; 355.15 K, Crystal
  molar heat capacity at constant pressure: 157.2 ± 3.1 J/K/mol
[2]; 360.15 K, Crystal
  molar heat capacity at constant pressure: 159.9 ± 3.2 J/K/mol
[2]; 365.15 K, Crystal
  molar heat capacity at constant pressure: 163.8 ± 3.3 J/K/mol
[2]; 370.15 K, Crystal
  molar heat capacity at constant pressure: 166.5 ± 3.3 J/K/mol
[2]; 375.15 K, Crystal
  molar heat capacity at constant pressure: 169.8 ± 3.4 J/K/mol
[2]; 380.15 K, Crystal
  molar heat capacity at constant pressure: 172.4 ± 3.4 J/K/mol
[2]; 385.15 K, Crystal
  molar heat capacity at constant pressure: 175.1 ± 3.5 J/K/mol
[2]; 390.15 K, Crystal
  molar heat capacity at constant pressure: 177.3 ± 3.5 J/K/mol
[2]; 395.15 K, Crystal
  molar heat capacity at constant pressure: 180.4 ± 3.6 J/K/mol
[2]; 400.15 K, Crystal
  molar heat capacity at constant pressure: 183.3 ± 3.7 J/K/mol
[2]; 405.15 K, Crystal
  molar heat capacity at constant pressure: 186.5 ± 3.7 J/K/mol
[2]; 410.15 K, Crystal
  molar heat capacity at constant pressure: 189.8 ± 3.8 J/K/mol
[2]; 415.15 K, Crystal
  molar heat capacity at constant pressure: 193.9 ± 3.9 J/K/mol
[2]; 420.15 K, Crystal
  molar heat capacity at constant pressure: 197.1 ± 3.9 J/K/mol
[2]; 425.15 K, Crystal
  molar heat capacity at constant pressure: 200.8 ± 4 J/K/mol
[2]; 430.15 K, Crystal
  molar heat capacity at constant pressure: 202.7 ± 4.1 J/K/mol
[2]; 435.15 K, Crystal
  molar heat capacity at constant pressure: 204.9 ± 4.1 J/K/mol
[2]; 440.15 K, Crystal
  molar heat capacity at constant pressure: 207.5 ± 4.2 J/K/mol
[2]; 445.15 K, Crystal
  molar heat capacity at constant pressure: 210.3 ± 4.2 J/K/mol
[2]; 450.15 K, Crystal
  molar heat capacity at constant pressure: 213.3 ± 4.3 J/K/mol
[2]; 455.15 K, Crystal
  molar heat capacity at constant pressure: 215.9 ± 4.3 J/K/mol
[2]; 460.15 K, Crystal
  molar heat capacity at constant pressure: 219.1 ± 4.4 J/K/mol
[2]; 465.15 K, Crystal
  molar heat capacity at constant pressure: 222.2 ± 4.4 J/K/mol
[2]; 470.15 K, Crystal
  molar heat capacity at constant pressure: 224.9 ± 4.5 J/K/mol

## O=C1NCCN1 [2-imidazolidinone]
[3]; Crystal 1
  Molar enthalpy of transition or fusion: 3.15 ± 0.0956 kcal/mol
[3]; Crystal 2
  Molar enthalpy of transition or fusion: 0.908 ± 0.0717 kcal/mol
[1]; 327.2 K, Crystal 2
  vapor or sublimation pressure: 0.0001064 ± 2e-05 kPa and 0.0001074 ± 2e-05 kPa and 0.0001035 ± 2e-05 kPa
[1]; 329.21 K, Crystal 2
  vapor or sublimation pressure: 0.0001364 ± 2.1e-05 kPa and 0.0001328 ± 2.1e-05 kPa and 0.0001305 ± 2.1e-05 kPa
[1]; 331.14 K, Crystal 2
  vapor or sublimation pressure: 0.0001664 ± 2.1e-05 kPa and 0.0001631 ± 2.1e-05 kPa and 0.0001658 ± 2.1e-05 kPa
[1]; 333.19 K, Crystal 2
  vapor or sublimation pressure: 0.0002142 ± 2.1e-05 kPa and 0.0002049 ± 2.1e-05 kPa and 0.0002095 ± 2.1e-05 kPa
[1]; 335.21 K, Crystal 2
  vapor or sublimation pressure: 0.0002681 ± 2.2e-05 kPa and 0.0002592 ± 2.2e-05 kPa and 0.0002535 ± 2.2e-05 kPa
[1]; 337.15 K, Crystal 2
  vapor or sublimation pressure: 0.0003214 ± 2.3e-05 kPa and 0.000301 ± 2.3e-05 kPa and 0.00032 ± 2.3e-05 kPa
[1]; 339.2 K, Crystal 2
  vapor or sublimation pressure: 0.0003984 ± 2.4e-05 kPa and 0.0003883 ± 2.4e-05 kPa
[1]; 341.21 K, Crystal 2
  vapor or sublimation pressure: 0.000457 ± 2.6e-05 kPa and 0.0004831 ± 2.6e-05 kPa and 0.0004721 ± 2.6e-05 kPa
[1]; 343.14 K, Crystal 2
  vapor or sublimation pressure: 0.0005644 ± 2.8e-05 kPa and 0.0005525 ± 2.8e-05 kPa and 0.0005387 ± 2.8e-05 kPa
[1]; 345.19 K, Crystal 2
  vapor or sublimation pressure: 0.0006621 ± 3.1e-05 kPa and 0.0006672 ± 3.1e-05 kPa and 0.0006399 ± 3e-05 kPa
[1]; 347.2 K, Crystal 1
  vapor or sublimation pressure: 0.0007833 ± 3.4e-05 kPa and 0.0008114 ± 3.5e-05 kPa and 0.0007693 ± 3.4e-05 kPa
[1]; 349.16 K, Crystal 1
  vapor or sublimation pressure: 0.0009806 ± 4e-05 kPa and 0.0009769 ± 4e-05 kPa and 0.0009472 ± 3.9e-05 kPa
[1]; Crystal 1
  Triple point temperature: 404.8 ± 0.5 K
[1]; Crystal 2
  Triple point temperature: 346.6 ± 0.7 K
[2]; 268.15 K, Crystal 2
  molar heat capacity at constant pressure: 99.4 ± 2 J/K/mol
[2]; 270.15 K, Crystal 2
  molar heat capacity at constant pressure: 100 ± 2 J/K/mol
[2]; 275.15 K, Crystal 2
  molar heat capacity at constant pressure: 101.5 ± 2 J/K/mol
[2]; 280.15 K, Crystal 2
  molar heat capacity at constant pressure: 102.7 ± 2.1 J/K/mol
[2]; 285.15 K, Crystal 2
  molar heat capacity at constant pressure: 103.9 ± 2.1 J/K/mol
[2]; 290.15 K, Crystal 2
  molar heat capacity at constant pressure: 105.1 ± 2.1 J/K/mol
[2]; 295.15 K, Crystal 2
  molar heat capacity at constant pressure: 106.3 ± 2.1 J/K/mol
[2]; 298.15 K, Crystal 2
  molar heat capacity at constant pressure: 107.7 ± 2.2 J/K/mol
[2]; 300.15 K, Crystal 2
  molar heat capacity at constant pressure: 108.5 ± 2.2 J/K/mol
[2]; 305.15 K, Crystal 2
  molar heat capacity at constant pressure: 110.2 ± 2.2 J/K/mol
[2]; 310.15 K, Crystal 2
  molar heat capacity at constant pressure: 111.9 ± 2.2 J/K/mol
[2]; 315.15 K, Crystal 2
  molar heat capacity at constant pressure: 113.2 ± 2.3 J/K/mol
[2]; 320.15 K, Crystal 2
  molar heat capacity at constant pressure: 115.4 ± 2.3 J/K/mol
[2]; 325.15 K, Crystal 2
  molar heat capacity at constant pressure: 117.3 ± 2.3 J/K/mol
[2]; 330.15 K, Crystal 2
  molar heat capacity at constant pressure: 119 ± 2.4 J/K/mol
[2]; 335.15 K, Crystal 2
  molar heat capacity at constant pressure: 120.9 ± 2.4 J/K/mol
[2]; 338.15 K, Crystal 2
  molar heat capacity at constant pressure: 122.1 ± 2.4 J/K/mol
